Measurements reported in PMC9747329 (ACS chemical biology, 2022).
Non-standard residues stand in square brackets, D forms with d. Residues, ends and D or L forms follow the SMILES beside them. *: point of attachment. X1 = CN(C)c1ccc2c(-c3cc(C(=O)*)ccc3C(=O)[O-])c3ccc(=[N+](C)C)cc-3oc2c1; hArg = N=C(N)NCCCC[C@H](N)C(=O)O; Aib = CC(C)(N)C(=O)O

How the values were obtained:
nLuc-PTHR1 [1] = target: T1, nLuc-PTHR1 (Homo sapiens, UniProt Q03431); format: binding; details: HEK293
T1 sequence (Q03431 27-593): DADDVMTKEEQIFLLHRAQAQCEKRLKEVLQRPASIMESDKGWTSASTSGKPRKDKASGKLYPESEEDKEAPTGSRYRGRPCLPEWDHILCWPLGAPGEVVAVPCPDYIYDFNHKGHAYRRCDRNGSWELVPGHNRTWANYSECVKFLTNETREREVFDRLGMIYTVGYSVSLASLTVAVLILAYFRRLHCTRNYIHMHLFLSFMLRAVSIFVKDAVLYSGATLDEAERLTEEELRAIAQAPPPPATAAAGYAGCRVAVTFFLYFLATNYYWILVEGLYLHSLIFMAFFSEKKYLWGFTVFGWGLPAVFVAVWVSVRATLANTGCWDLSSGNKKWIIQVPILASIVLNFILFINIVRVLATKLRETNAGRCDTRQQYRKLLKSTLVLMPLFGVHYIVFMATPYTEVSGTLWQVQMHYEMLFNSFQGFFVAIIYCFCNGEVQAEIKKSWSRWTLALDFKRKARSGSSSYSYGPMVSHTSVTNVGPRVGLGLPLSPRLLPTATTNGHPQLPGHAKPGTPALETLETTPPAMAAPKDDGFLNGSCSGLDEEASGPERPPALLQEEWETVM

nLuc-ΔECD-PTHR1 = target: T2, nLuc-ΔECD-PTHR1 (Homo sapiens, UniProt Q03431); assay: NanoBRET direct binding on truncated receptor lacking the extracellular domain
T2 sequence (Q03431 182-593 limits assumed): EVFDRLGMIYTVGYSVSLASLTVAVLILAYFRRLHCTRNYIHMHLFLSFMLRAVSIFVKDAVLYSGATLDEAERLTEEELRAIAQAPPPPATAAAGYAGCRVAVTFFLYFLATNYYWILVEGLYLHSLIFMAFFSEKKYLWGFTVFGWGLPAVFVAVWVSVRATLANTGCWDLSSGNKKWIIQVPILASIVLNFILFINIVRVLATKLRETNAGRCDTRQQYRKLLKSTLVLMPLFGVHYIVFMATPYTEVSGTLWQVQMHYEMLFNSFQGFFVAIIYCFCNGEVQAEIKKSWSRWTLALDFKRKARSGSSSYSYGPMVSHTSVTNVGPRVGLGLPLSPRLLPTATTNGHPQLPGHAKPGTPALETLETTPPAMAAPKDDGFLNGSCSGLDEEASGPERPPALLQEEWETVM

WT-PTHR1 = target: T3, WT-PTHR1 (Homo sapiens, UniProt Q03431); assay: GloSensor cAMP assay in GP2.3 cells; format: cell-based; details: HEK293, read-out: cAMP formation %Emax
T3 sequence (Q03431 27-593): T1 sequence (Q03431 27-593)

nLuc-PTHR1 [2] = target: T1, nLuc-PTHR1; assay: NanoBRET equilibrium competition binding with tracer PTH; details: ABL up to 1 μM

Compound | koff (nLuc-PTHR1 [1]) | kon (nLuc-PTHR1 [1]) | koff (nLuc-ΔECD-PTHR1) | kon (nLuc-ΔECD-PTHR1) | Emax (WT-PTHR1) | displacement of PTH(1-34)K35^TMR tracer (in words) (nLuc-PTHR1 [2])
CC[C@H](C)[C@H](NC(=O)[C@H](CCC(=O)O)NC(=O)C(C)(C)NC(=O)[C@@H](NC(=O)C(C)(C)N)C(C)C)C(=O)N[C@@H](CCC(N)=O)C(=O)N[C@@H](CC(C)C)C(=O)N[C@@H](CCSC)C(=O)N[C@@H](Cc1c[nH]cn1)C(=O)N[C@@H](CCC(N)=O)C(=O)N[C@@H](CCCCNC(=N)N)C(=O)N[C@@H](C)C(=O)N[C@@H](CCCCN)C(=O)N[C@@H](Cc1c[nH]c2ccccc12)C(=O)N[C@@H](CCCCNC(=O)c1ccc(C(=O)[O-])c(-c2c3ccc(=[N+](C)C)cc-3oc3cc(N(C)C)ccc23)c1)C(N)=O [M-PTH(1-14)-15K^TMR] (H-[Aib]V[Aib]EIQLMHQ[hArg]AKWK(X1)-NH2; N-terminus assumed) | 0.024 ± 0.001 s⁻¹ | 77000 ± 20000 M⁻¹ s⁻¹ | 0.018 ± 0.003 s⁻¹ | 180000 ± 50000 M⁻¹ s⁻¹ |  | 
CC[C@H](C)[C@H](NC(=O)[C@H](CC(C)C)NC(=O)[C@H](CCCCN)NC(=O)[C@H](Cc1c[nH]cn1)NC(=O)[C@H](CC(C)C)NC(=O)[C@H](Cc1ccccc1)NC(=O)[C@H](C)NC(=O)[C@H](CCCNC(=N)N)NC(=O)[C@H](CCCNC(=N)N)NC(=O)[C@H](CCCNC(=N)N)NC(=O)[C@H](C)NC(=O)[C@H](CC(=O)O)NC(=O)[C@H](CCC(N)=O)NC(=O)[C@@H](NC(=O)[C@H](Cc1c[nH]c2ccccc12)NC(=O)[C@H](CCCCN)NC(=O)[C@H](C)NC(=O)[C@H](CCCNC(=N)N)NC(=O)[C@H](CCC(N)=O)NC(=O)[C@H](Cc1c[nH]cn1)NC(=O)[C@H](CCSC)NC(=O)[C@H](CC(C)C)NC(=O)[C@H](CCC(N)=O)NC(=O)[C@@H](NC(=O)[C@H](CCC(=O)O)NC(=O)[C@H](C)NC(=O)[C@@H](NC(=O)[C@H](C)N)C(C)C)[C@@H](C)CC)[C@@H](C)CC)C(=O)N[C@@H](C)C(=O)N[C@@H](CCC(=O)O)C(=O)N[C@H](C(=O)N[C@@H](Cc1c[nH]cn1)C(=O)N[C@H](C(=O)N[C@@H](C)C(=O)N[C@@H](CCCCNC(=O)c1ccc(C(=O)[O-])c(-c2c3ccc(=[N+](C)C)cc-3oc3cc(N(C)C)ccc23)c1)C(N)=O)[C@@H](C)O)[C@@H](C)CC [LA-PTH(1-34)-35K^TMR] (H-AVAEIQLMHQRAKWIQDARRRAFLHKLIAEIHTAK(X1)-NH2; N-terminus assumed) | 0.00056 ± 0.0002 s⁻¹ | 230000 ± 40000 M⁻¹ s⁻¹ | 0.0097 ± 0.003 s⁻¹ | 130000 ± 10000 M⁻¹ s⁻¹ |  | 
CC[C@H](C)[C@H](NC(=O)[C@H](CCCCNC(=O)c1ccc(C(=O)[O-])c(-c2c3ccc(=[N+](C)C)cc-3oc3cc(N(C)C)ccc23)c1)NC(=O)[C@H](C)NC(=O)[C@@H](NC(=O)[C@H](Cc1c[nH]cn1)NC(=O)[C@@H](NC(=O)[C@H](CCC(=O)O)NC(=O)[C@H](C)NC(=O)[C@@H](NC(=O)[C@H](CC(C)C)NC(=O)[C@H](Cc1c[nH]cn1)NC(=O)[C@H](Cc1c[nH]cn1)NC(=O)[C@H](CC(C)C)NC(=O)[C@H](Cc1ccccc1)NC(=O)[C@H](Cc1ccccc1)NC(=O)[C@H](CCCNC(=N)N)NC(=O)[C@H](CCCNC(=N)N)NC(=O)[C@H](CCCNC(=N)N)NC(=O)[C@H](CC(C)C)NC(=O)[C@H](CC(=O)O)NC(=O)[C@H](CCC(N)=O)NC(=O)[C@@H](NC(=O)[C@H](CO)NC(=O)[C@H](CCCCN)NC(=O)CNC(=O)[C@H](CC(C)C)NC(=O)[C@H](CC(N)=O)NC(=O)[C@H](Cc1c[nH]cn1)NC(=O)[C@H](CCSC)NC(=O)[C@H](CC(C)C)NC(=O)[C@H](CCC(N)=O)NC(=O)[C@@H](NC(=O)[C@H](CCC(=O)O)NC(=O)[C@H](CO)NC(=O)[C@@H](NC(=O)[C@@H](N)CO)C(C)C)[C@@H](C)CC)[C@@H](C)CC)[C@@H](C)CC)[C@@H](C)CC)[C@@H](C)O)C(N)=O [PTH[1-12] PTHrP[13-36]] (H-SVSEIQLMHNLGKSIQDLRRRFFLHHLIAEIHTAK(X1)I-NH2; N-terminus assumed) | 0.0035 ± 0.001 s⁻¹ | 800000 ± 50000 M⁻¹ s⁻¹ |  |  | 107 ± 5% | 
ABL: synthetic analogue of PTHrP(1-34) used clinically for osteoporosis |  |  |  |  |  | failed to fully inhibit
